From ChEMBL document CHEMBL4393686, “InCl3 mediated heteroarylation of indoles and their derivatization via CH activation strategy: Discovery of 2-(1H-indol-3-yl)-quinoxaline derivatives as a new class of PDE4B selective inhibitors for arthritis and/or multiple sclerosis” (Eur J Med Chem, 2019)

Assay: Toxicity in zebrafish embryo assessed as effect in swim bladder formation at 1 to 100 uM
Set-up: species or system Danio rerio
Conditions: in vivo

With `C=CCn1cc(-c2nc3ccccc3nc2Cl)c2cc(OC)ccc21` the Activity was “Non-Toxic”.
